From patent US9901624B2, “Methods and compositions for treating nephrogenic diabetes insipidus” (The United States of America as represented by the …, priority 2004, dated 2018)
Entries after “also recorded” stand apart in the source; their conditions may differ. Where two headings read alike, the source gives them in different places.

Legend:
[1] = target: P2Y1 (Rattus norvegicus, UniProt P49651); conditions: cited from earlier work
[2] = target: T1, P2Y11 (Homo sapiens, UniProt Q96G91); conditions: cDNA library source: Human placenta; cited from earlier work
T1 sequence (Q96G91 1-374): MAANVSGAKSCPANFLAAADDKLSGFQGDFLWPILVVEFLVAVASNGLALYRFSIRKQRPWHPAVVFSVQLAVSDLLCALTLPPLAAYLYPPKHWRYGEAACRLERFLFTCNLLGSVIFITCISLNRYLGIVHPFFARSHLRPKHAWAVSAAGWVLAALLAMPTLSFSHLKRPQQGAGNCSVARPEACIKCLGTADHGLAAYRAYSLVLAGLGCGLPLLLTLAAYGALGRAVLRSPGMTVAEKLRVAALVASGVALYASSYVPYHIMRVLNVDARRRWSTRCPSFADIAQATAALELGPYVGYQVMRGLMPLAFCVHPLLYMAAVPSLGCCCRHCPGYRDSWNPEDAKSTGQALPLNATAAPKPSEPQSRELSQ

[3] = system: P2Y2 receptor; conditions: chronic dDAVP infusion; cited from earlier work
[4] = system: V2 receptor; conditions: chronic dDAVP infusion; cited from earlier work
[5] = system: purinergic-driven PGE2 production by IMCD; conditions: normal rats chronically infused with dDAVP 20 ng/h; cited from earlier work
[6] = Apyrase treatment day 7 to 14 in lithium-fed and regular diet rats: urine flow; assay type: in vivo, Sprague-Dawley rats
Procedure: (§1) It is non-toxic and safe to administer either intravenously or intraperitoneally. Two experiments were conducted. In one experiment Sprague-Dawley rats were divided into two groups (N=4 per group). One group was fed with regular rat chow, while the other was fed regular rat chow to which Lithium Chloride was added to a concentration of 40 mmol/kg wt of the food. Both groups were fed for 14 days without any other treatment. The second experiment was similar to the first one, except that potato apyrase (Sigma Chemical Co) was administered to both regular and lithium-added diet fed rats front day 7 to day 14 at a dose of 100 units/kg body wt. intraperitoneally, three times a day (˜8 hourly intervals). All rats had free access to drinking water. Twenty-four hour urine samples were collected from all rats on day 7 and 14 prior to euthanasia, and analyzed. All rats were euthanized on day 14, and IMCD suspensions were prepared. Basal and ATPγS-stimulated ex vivo PGE2 release by IMCD was determined as per the methods previously established.

[7] = system: P2Y2 receptor-stimulated PGE2 release by IMCD; experiment: Apyrase treatment in rats: basal and ATPγS-stimulated ex vivo PGE2 release by IMCD; parameters: species or system Sprague-Dawley rats
Procedure: as §1

[8] = target: T2, P2Y2 receptor (Rattus norvegicus, UniProt P41232); conditions: reversible fashion; cited from earlier work
T2 construct: Freshly prepared IMCD-enriched fractions were incubated at 37.degree; C. under physiological conditions; from tissue; host or cells: rat kidney inner medulla / inner medullary collecting duct (IMCD) preparations

[9] = target: P2Y4 (Homo sapiens, UniProt P51582); conditions: cDNA library source: Human chromosome X; cited from earlier work
[10] = in vivo; cited from earlier work
[11] = target: P2Y1 (Meleagris gallopavo, UniProt P49652); conditions: cDNA library source: Turkey brain; cited from earlier work
[12] = target: P2Y1 (Gallus gallus, UniProt P34996); conditions: cDNA library source: Chick brain; cited from earlier work
[13] = control rats fed with regular diet

T2 sequence (P41232 whole entry): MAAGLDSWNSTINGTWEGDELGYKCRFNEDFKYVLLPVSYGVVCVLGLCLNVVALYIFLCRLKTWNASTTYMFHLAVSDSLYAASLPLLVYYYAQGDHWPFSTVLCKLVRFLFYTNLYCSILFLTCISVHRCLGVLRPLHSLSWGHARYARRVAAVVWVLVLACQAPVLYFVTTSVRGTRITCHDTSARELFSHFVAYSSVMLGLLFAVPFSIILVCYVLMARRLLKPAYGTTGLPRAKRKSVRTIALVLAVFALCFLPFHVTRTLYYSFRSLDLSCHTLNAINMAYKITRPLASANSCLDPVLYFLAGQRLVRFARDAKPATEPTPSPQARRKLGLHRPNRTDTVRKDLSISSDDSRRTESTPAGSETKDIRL
P2Y1 (Rattus norvegicus, UniProt P49651), sequence (P49651 whole entry): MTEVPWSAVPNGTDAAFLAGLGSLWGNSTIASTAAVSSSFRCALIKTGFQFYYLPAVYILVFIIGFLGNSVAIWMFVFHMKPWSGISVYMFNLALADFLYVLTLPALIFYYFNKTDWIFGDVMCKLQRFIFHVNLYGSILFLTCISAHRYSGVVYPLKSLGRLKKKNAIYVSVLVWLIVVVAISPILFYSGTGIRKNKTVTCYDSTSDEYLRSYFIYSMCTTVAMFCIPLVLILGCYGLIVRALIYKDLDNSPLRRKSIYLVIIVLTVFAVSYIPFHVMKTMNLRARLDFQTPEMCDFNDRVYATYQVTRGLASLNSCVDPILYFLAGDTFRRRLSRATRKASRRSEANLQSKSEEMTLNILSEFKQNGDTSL
P2Y1 (Meleagris gallopavo, UniProt P49652), sequence (P49652 whole entry): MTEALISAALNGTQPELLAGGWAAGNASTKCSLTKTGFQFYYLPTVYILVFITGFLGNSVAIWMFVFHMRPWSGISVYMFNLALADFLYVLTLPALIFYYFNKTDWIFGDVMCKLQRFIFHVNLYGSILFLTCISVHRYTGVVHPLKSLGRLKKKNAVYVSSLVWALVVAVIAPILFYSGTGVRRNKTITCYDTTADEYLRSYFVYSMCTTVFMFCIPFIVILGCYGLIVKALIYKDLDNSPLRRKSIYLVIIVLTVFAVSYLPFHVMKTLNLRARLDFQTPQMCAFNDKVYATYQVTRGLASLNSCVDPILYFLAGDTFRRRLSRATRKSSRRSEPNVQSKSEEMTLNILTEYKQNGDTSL
P2Y1 (Gallus gallus, UniProt P34996), sequence (P34996 whole entry): as the sequence (P49652 whole entry) above, with S28T counted along it
P2Y4, sequence (P51582 whole entry): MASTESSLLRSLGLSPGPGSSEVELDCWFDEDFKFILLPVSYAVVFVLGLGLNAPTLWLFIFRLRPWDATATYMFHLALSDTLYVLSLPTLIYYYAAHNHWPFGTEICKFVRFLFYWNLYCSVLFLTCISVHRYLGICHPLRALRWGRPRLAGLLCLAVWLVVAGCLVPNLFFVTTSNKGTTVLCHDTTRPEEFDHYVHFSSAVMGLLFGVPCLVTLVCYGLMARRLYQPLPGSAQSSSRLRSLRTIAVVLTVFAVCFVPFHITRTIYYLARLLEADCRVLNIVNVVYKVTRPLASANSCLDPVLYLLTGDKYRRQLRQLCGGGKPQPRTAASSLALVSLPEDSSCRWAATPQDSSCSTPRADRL

For `Nc1ncnc2c1ncn2[C@@H]1O[C@H](COP(=O)(O)CP(=O)(O)OP(=O)(O)O)[C@@H](O)[C@H]1O` [α,β-meATP], the Agonist activity ([1]; cDNA library source: Rat insulinoma cells) is given as “(α,β-meATP inactive)”.

For `O=c1ccn([C@@H]2O[C@H](COP(=O)(O)OP(=O)(O)O)[C@@H](O)[C@H]2O)c(=O)[nH]1` [UDP], the Agonist activity [2] is given as “(UTP, UDP inactive)”.

In the case of dDAVP, the “mRNA expression of P2Y2 receptor, down-regulated to” value [3] is given as 54%, the “protein abundance of P2Y2 receptor, down-regulated to” value [3] is given as 49% and the “expression of V2 receptor mRNA” value [4] is given as “did not change significantly”. The “purinergic-driven PGE2 production by IMCD” value [5] was “significantly decreased”.

For apyrase, the urine output [6, 13] was “did not change”, the “urine flow induced by lithium” value ([6]; lithium-fed rats, apyrase day 7 to 14, 100 units/kg intraperitoneally three times a day) was “prevented further increase in the urine flow” and the “P2Y2-mediated PGE2 release by IMCD” value [7, 13] was “did not change”. The “P2Y2 receptor-stimulated PGE2 release by IMCD” value ([7]; lithium-fed rats, compared to apyrase-untreated lithium-fed rats) was “significantly decreased”.

For `Nc1ncnc2c1ncn2[C@@H]1O[C@H](COP(=O)(O)OP(=O)(O)OP(=O)(O)O)[C@@H](O)[C@H]1O` [ATP], the “AVP-stimulated osmotic water permeability (Pf)” value [8] is listed as “decreased” and the Agonist activity [9] is listed as “UTP > UDP (ATP inactive)”.

For `COc1ccc2c(c1)c(CC(=O)O)c(C)n2C(=O)c1ccc(Cl)cc1` [indomethacin], the “polyuria of acquired NDI” value [10] is given as “prevented the polyuria; also recorded: ameliorated”.

In the case of `O=c1ccn([C@@H]2O[C@H](COP(=O)(O)OP(=O)(O)OP(=O)(O)O)[C@@H](O)[C@H]2O)c(=O)[nH]1` [UTP], the “AVP-stimulated osmotic water permeability (Pf)” value [8] is given as “decreased”, the Agonist activity ([1]; cDNA library source: Rat ileal myocytes) is given as “ATP (UTP inactive)” and the Agonist activity [11] is given as “inactive)”. The Agonist activity [12] was “inactive)” and the Agonist activity [2] was “(UTP, UDP inactive)”.

For `Nc1ncnc2c1ncn2[C@@H]1O[C@H](COP(=O)(O)OP(=O)(O)O)[C@@H](O)[C@H]1O` [ADP], the “AVP-stimulated osmotic water permeability (Pf)” value [8] is given as “not”.
